# According to PMC3923716 (PLoS Neglected Tropical Diseases, 2014):
# Where “and” joins values, the source holds several entries; their conditions need not be identical. Identical values can stand only once. Marks after values point to notes of the source that are not given here.
# Tests used:
# B. pahangi Hsp90 = molecular target: T1, B. pahangi Hsp90 (Brugia pahangi, UniProt O61998); assay: Competition FP assay (displacement of Cy3B-GA), B. pahangi lysate; format: binding; settings: FP assay; best fit (95% confidence intervals); read-out: B. pahangi IC50
# T1 construct: Adult worms of B. pahangi were obtained from infected jirds; from tissue; host or cells: whole adult B. pahangi worms, ground and lysed in HFB buffer
# Experimental: Adult worms of B. pahangi were obtained from infected jirds after 3–4 months, exactly as described previously and were frozen in liquid nitrogen, ground in a pestle and mortar to a fine powder and re-suspended in an appropriate volume of HFB assay buffer (20 mM HEPES, pH 7.3, 50 mM KCl, 5 mM MgCl2, 20 mM Na2MoO4, 1% NP40). Protein concentrations were estimated using the BioRad protein assay. At this point lysates were freeze-dried for shipping to the USA.
# (§1) The FP assay was set up essentially as described previously, [25]. […] The equilibrium binding of Cy3B-GA and recombinant human Hsp90α (Enzo Life Sciences, Farmingdale, NY USA) or parasite lysate was determined by creating a two-fold dilution series of protein/extract for an eleven-point curve with the first column containing no protein. […] All FP values are expressed in millipolarization (mP) units with the mP value of free Cy3B-GA probe set to 50. Equilibrium binding constants were determined by nonlinear regression using a one-site binding model (GraphPad Prism software).
# (§2) The relative binding affinities of inhibitors to human or parasite-derived Hsp90 was determined using competitive FP binding assays. […] For parasite-derived Hsp90, an amount of parasite lysate resulting in 50% of maximal Cy3B-GA binding was used. […] Stock solutions of each compound were prepared in DMSO at a concentration of 10 mM and 3-fold serial dilutions prepared in DMSO for eleven point curves. […] The final concentration of Cy3B-GA was 6 nM and the final DMSO concentration in all wells was 0.5%. Free Cy3B-GA (mP set to 50) and buffer only (background) wells were included as controls on each plate. Plates were incubated at 8°C with gentle shaking for 20 h.
# B. malayi Hsp90 = B. malayi Hsp90 (Brugia malayi, UniProt A0A0H5S7Y7); assay: Competition FP assay (displacement of Cy3B-GA), B. malayi lysate; format: binding; settings: best fit (95% confidence intervals), read-out: B. malayi IC50
# Experimental: as §1, §2
# Brugia Hsp90 = assay: Competition FP assay, Brugia Hsp90 (species not separated); format: binding; settings: read-out: IC50 for binding to Brugia Hsp90
# Experimental: as §1, §2
# [1] = tested on: B. pahangi Mf (microfilariae); assay: Mf viability in vitro; format: cell-based, Brugia pahangi; settings: Mf
# Experimental: As adult Brugia worms are limited in numbers, initial experiments assessed the effect of each drug on Mf viability. Mf were purified from infected animals essentially as described previously. In brief, following lavage of the peritoneal cavity of an infected animal with Hanks Balanced Salt Solution (HBSS) pre-warmed to 37°C, Mf were collected by centrifugation and then purified from host cells by centrifugation through lymphoprep (Sigma). This procedure was repeated twice. Mf were collected from the pellet, washed twice in HBSS and once in worm culture medium (WCM) which comprised RPMI 1640, (Invitrogen Cat No: 52400), containing 5% heat inactivated fetal calf serum, 1% glucose, 100 units/ml penicillin and 100 µg/ml streptomycin (all Invitrogen). Mf were then dispensed into the wells of a 24-well plate to give approximately 200 Mf in 2.0 ml, using a single well for each drug concentration. All procedures were carried out using aseptic techniques. The five novel compounds, plus GA and medium alone controls, were tested three times against Mf over the full range of concentrations.
# adult female B. pahangi [2] = assay: Adult female worm assay in vitro (Mf output and adult viability), continuous exposure; format: cell-based, Brugia pahangi
# Experimental: For adult worm assays, adult female B. pahangi, 3–4 months old, were incubated individually in 2.0 ml of WCM overnight in 24-well plates and pre-screened for Mf production. […] For the drug experiments, six female worms of B. pahangi for each concentration of drug were cultured individually in 24-well plates in 2.0 ml of WCM containing drug, or carrier alone (DMSO) at a concentration equal to that in the highest concentration of drug. In some experiments, GA was used as a positive control. Initially, all five compounds were tested over selected concentrations starting at 2 µM to 100 nM (see Results for details). For Hsp90 inhibitors, Mf output by individual female worms is a sensitive indicator of adult worm viability and, in most experiments, was assessed at 72 h. In addition, adult worms were examined microscopically on a daily basis for 7–10 days to determine whether lower concentrations of drugs had any effects over a longer period of incubation. Results are expressed as mean Mf output ± SD over a 72 h period. Statistical significance between groups was calculated using the Mann Whitney test with P values<0.05 being considered significant.
# male worms (B. pahangi) = assay: Adult male worm exposure in vitro; format: cell-based, Brugia pahangi; settings: 100 nM, day 7 of exposure
# Experimental: The remaining worms although alive, were extremely sluggish. […] Worms that were dying tended to burst and release their uterine contents and wells contained many embryonic stages in addition to Mf. […] By day 7 of exposure 100% of male worms exposed to 100 nM drug were dead.
# L3 stage of B. pahangi = assay: L3 viability in vitro; format: cell-based, Brugia pahangi; settings: 6 days exposure
# Experimental: L3 stages were harvested from mosquitoes nine days post-infection. L3 were picked individually with a fine glass pipette, counted and washed three times in HBSS containing 1000 units/ml of penicillin and 1000 µg/ml streptomycin by sedimentation at room temperature. 20–30 L3 per well were plated out in duplicate in 24-well plates in 2.0 ml of WCM containing drug, or carrier alone (DMSO) and cultured at 37°C for up to 7 days. […] This experiment was repeated twice.
# adult female B. pahangi [3] = assay: Short 24 h exposure of adult female worms, then medium alone; format: cell-based, Brugia pahangi; settings: for mean Mf production: 24 h in drug and 24 h in medium alone; for lowest concentration with significantly fewer Mf: 250, 25, 10 nM tested
# [4] = tested on: adult female B. pahangi and Mf; assay: In vivo testing: adult female worms transplanted into the peritoneal cavity of BALB/c mice; parameters: species or system BALB/c mouse; settings: 50 mg/Kg i.p. at day 0, 3 and 7
# Excerpt: Adult worms were removed from the peritoneal cavity of infected jirds and rinsed in HBSS. 10 adult female worms were transplanted into the peritoneal cavity of each of ten male BALB/c mouse using standard methods, [28]. Adult worms were transferred into the peritoneal cavity of anaesthetized mice using a blunted glass hook. Not all mice received the full quota of 10 worms (see Table 1). […] This dose was selected on the basis of previous studies in a mouse xenograft model. […] The condition of any adult worms recovered was noted. Mf in the first 12 ml of peritoneal washings were pelleted by centrifugation and fixed in 2% formalin in water and stored at 4°C until counted. Mice were weighed at each time point to monitor any possible weight loss.
# [5] = single dose of 50 mg/Kg, intra-peritoneal route; cited from earlier work
# [6] = recovery 9 days after last dose
compound,measurement,setting,value
CCNC(=O)c1noc(-c2cc(C(C)C)c(O)cc2O)c1-c1ccc(CN2CCOCC2)cc1 [NVP-AUY922],IC50,B. pahangi Hsp90,0.64 nM
same,IC50,B. malayi Hsp90,0.95 nM
same,IC50,Brugia Hsp90,~1 nM
same,% death by day 7,[1]; 0.976 nM,75%
same,% death by day 7,[1]; 1.95 nM,100%
same,adult worm survival at lower concentrations,"adult female B. pahangi [2]; 10 and 5.0 nM, motility affected",did not die
same,lowest concentration with significant inhibitory effect on Mf output,"adult female B. pahangi [2]; 72 h exposure, titrated 500 nM to 1.0 nM",10 nM
same,adult worms killed,"adult female B. pahangi [2]; 6 days exposure, 25 nM",50%
same,adult worms dead,"adult female B. pahangi [2]; 6 days exposure, 25 nM, typical experiment",3/6
same,adult worms dead,"adult female B. pahangi [2]; 6 days exposure, 50 nM, typical experiment",4/6
same,adult worms dead,"adult female B. pahangi [2]; 6 days exposure, 100 nM and above",all adult worms were dead
same,lowest concentration with significant decrease in Mf output,"adult female B. pahangi [2]; 6 days exposure, not significant at 1.0 nM",5.0 nM and 5 nM
same,concentration with significant effect on Mf output,"adult female B. pahangi [2]; initial screen 2.0 µM to 100 nM, adult female worms",≤ 100 nM
same,male worms dead,male worms (B. pahangi),100%
same,effect on L3,L3 stage of B. pahangi; 1 nM or below,no effect
same,L3 dead,"L3 stage of B. pahangi; 5.0 nM, remainder moving very slowly",approximately 30%
same,L3 dead,L3 stage of B. pahangi; all concentrations down to and including 10 nM,100%
same,mean Mf production,"adult female B. pahangi [3]; 10 nM, not significant vs DMSO",910±674 Mf
same,mean Mf production,adult female B. pahangi [3]; 25 nM,100±60 Mf
same,mean Mf production,adult female B. pahangi [3]; 250 nM,11±23 Mf
same,condition of adult worms,"adult female B. pahangi [3]; 24 h exposure to 10 nM, day 9, vs DMSO controls",no obvious difference
same,condition of adult worms,"adult female B. pahangi [3]; 24 h exposure to 25 nM, day 9",noticeably more sluggish than control worms
same,condition of adult worms,"adult female B. pahangi [3]; 24 h exposure to 250 nM, 9 days in medium alone","barely moving, but they were still alive"
same,lowest concentration with significantly fewer Mf,adult female B. pahangi [3]; 24 h in drug and 48 h in medium alone,10 nM
same,lowest concentration with significantly fewer Mf,adult female B. pahangi [3]; after 24 h in drug,25 nM
same,Mean no Mf per mouse,[4]; first 12 ml of peritoneal washings,4730±5101
same,recovery of live worms,[4]; range over treated mice,0–11%
same,Total number worms recovered,[4]; recovered/transplanted,8/48 ^**
same,No. mice with live Mf,[4]; [6],2/5
same,No. mice with viable worms,[4]; [6],2/5
same,No. mice with worms,[4]; [6],5/5
same,No. viable worms recovered,[4]; [6],2
same,viable worms recovered (mean % ± SD),[4]; [6],4.4±6.0%
same,time of maximum plasma level post-dosing,[5],0.25 h
